Test results taken from patent US11180811B2, “Molecular signatures of conditions associated with longevity” (The Brigham and Women's Hospital, Inc., priority 2014, dated 2021).

Key:
[1] = system: Kidney longevity gene expression signature; assay: Compounds that shift gene expression in the direction of longevity (Table 6), kidney
Excerpt: (§1) The methods, assays, and systems described herein can be useful in a number of areas, including the discovery and validation of new targets for reducing rate of aging, extending lifespan, reducing incidence and delaying onset of disease and improving overall health of aging populations. Furthermore, the invention can facilitate the discovery and development of drugs, biologicals and treatment regimens based on the above that favorably intervene in the aging process. For example, the gene expression signatures described herein can be used to choose target gene products in a therapeutic protocol, to elaborate the biological function of the target gene product in the aging process, and to identify compounds that alleviate deterioration associated with aging by modulating the activity of target gene products. For example, several compounds that shift gene expression in the direction of longevity have been identified or validated using the assays or methods described herein (Table 6).
(§2) In Table 6, several compounds that shift gene expression in the direction of longevity have been identified or validated.

[2] = system: Brain longevity gene expression signature; assay: Compounds that shift gene expression in the direction of longevity (Table 6), brain
Excerpt: as §1, §2

[3] = system: Liver longevity gene expression signature; assay: Compounds that shift gene expression in the direction of longevity (Table 6), liver
Excerpt: as §1, §2

mice = details: elevated growth hormone treatment during development (Panici et al., 2010); cited from earlier work

Row | Molecule | Direction of lifespan associated with the compound's shift of gene expression (Increased lifespan / Decreased lifespan) [2] | Direction of lifespan associated with the compound's shift of gene expression (Increased lifespan / Decreased lifespan) [3] | other results
1 | CCCCC/C=C/C=C1/C(=O)C=C[C@@H]1C/C=C\CCCC(=O)O [15Δ prostaglandin J2] | Decreased | Decreased | Direction of lifespan associated with the compound's shift of gene expression (Increased lifespan / Decreased lifespan) [1]: Decreased
2 | CO[C@H]1/C=C\C=C(/C)C(=O)NC2=CC(=O)C(NCCN(C)C)=C(C[C@@H](C)C[C@H](OC)[C@H](O)[C@@H](C)/C=C(\C)[C@@H]1OC(N)=O)C2=O [Alvespimycin] | Decreased | – | –
3 | NC12CC3CC(CC(C3)C1)C2 [Amantadine] | Increased | – | –
4 | CN(C)CCOC(C)(c1ccccc1)c1ccccn1 (centres unmarked) [Doxylamine] | – | Decreased | –
5 | C[C@H]1O[C@@H](O[C@H]2CC[C@]3(C=O)[C@H]4CC[C@]5(C)[C@@H](C6=CC(=O)OC6)CC[C@]5(O)[C@@H]4CC[C@]3(O)C2)C[C@H](O)[C@@H]1O [Helveticoside] | – | Increased | –
6 | CCc1c2c(nc3ccc(OC(=O)N4CCC(N5CCCCC5)CC4)cc13)-c1cc3c(c(=O)n1C2)COC(=O)[C@]3(O)CC [Irinotecan] | Increased | – | Direction of lifespan associated with the compound's shift of gene expression (Increased lifespan / Decreased lifespan) [1]: Increased
7 | O[C@H]1[C@H]2c3cc4c(cc3CN3CCC(=C[C@@H]1O)[C@H]23)OCO4 [Lycorine] | – | – | Direction of lifespan associated with the compound's shift of gene expression (Increased lifespan / Decreased lifespan) [1]: Decreased
8 | C[C@@H]1C[C@H]2O[C@@H]2/C=C\C=C\C(=O)Cc2c(Cl)c(O)cc(O)c2C(=O)O1 [Monorden] | – | Decreased | –
9 | Oc1ccc(C=Cc2cc(O)cc(O)c2)cc1 [Resveratrol] | – | Increased | –
10 | Artemizole | – | Increased | –
11 | growth hormone | – | – | Effect on lifespan (mice): shortens lifespan
